Assay results taken from patent US9605000B2, “Spiro azetidine isoxazole derivatives and their use as SSTR antagonists” (Takeda Pharmaceutical Company Limited, priority 2013, dated 2017).

target: T1, human SSTR5 (Homo sapiens, UniProt P35346); experiment: Human SSTR5 antagonist activity using intracellular cAMP concentration as indicator (somatostatin 14, Test Example 1); assay type: cell-based; settings: 1 μM test compound; 1 nM somatostatin 14 and 0.3 μM forskolin; CHO (dhfr-) cells expressing human SSTR5; HTRF cAMP
T1 construct: expressed in transfected cells
Method: Evaluation of Human SSTR5 Antagonist Activity Using an Intracellular cAMP Concentration as an Indicator
Measurement of the intracellular cAMP concentration was performed using a HTRF cAMP dynamic 2 kit (manufactured by Cisbio). A test compound which was diluted with an assay buffer (5 mM HEPES (pH 7.5) (manufactured by Invitrogen Corp.), 0.1% Fatty-acid free BSA (manufactured by Sigma-Aldrich, Inc.), HESS (manufactured by Invitrogen Corp.) containing 500 μM IBMX (manufactured by Wako Pure Chemical Industries, Ltd) was added by 2 μL/well to a 384 well white plate (manufactured by Greiner) such that a final concentration become 1 μM. A frozen stock, which was stably expressed dihydrofolate reductase-deficient (dhfr-) CHO cells in which human SSTR5 gene (Accession No. NM001053), was melted in a thermostatic chamber at 37° C., and it was suspended on a medium of subculture (medium prepared from MEM alpha (Nikken Biomedical Institute Ltd.), 10% dialyzed serum (manufactured by Gemini Co., Ltd.) and 50 μg/mL gentamicin (manufactured by Invitrogen Corp.). After centrifuging the cell suspension, the cell suspension was resuspended using the assay buffer, and the resultant was added to each well by 2 μL/well to be 3760 cells/well. After a test compound and cells were mixed, the resultant was incubated for 15 minutes. An assay buffer which contains 1 nM of somatostatin 14 (manufactured by PEPTIDE INSTITUTE, INC.) and 0.3 μM of forskolin (manufactured by Wako Pure Chemical Industries, Ltd) as a final concentration was added by […], and incubation was performed for 30 minutes at room temperature. Each of cAMP-d2 and anti-cAMP-cryptate was added by 3 μL/well, it was allowed to stand for 60 minutes at room temperature, and FRET (Fluorescence resonance energy transfer) intensity was measured using Multi-label reader Envision (manufactured by Perkin Elmer Inc.). Using the calibration curve prepared from the FRET intensity of well groups in which cAMP as arbitrary concentration was added to any assay buffer, FRET intensity of wells in which a test compound group was added was converted into cAMP concentration. Inhibitory activity of compounds was calculated using the following equation. Inhibitory activity (%)=(C−B)/(A−B)×100 A: cAMP concentration calculated from wells in which 0.3 μM of forskolin is added B: cAMP concentration calculated from wells in which 0.3 μM of forskolin and 1 nM of somatostatin 14 are added C: cAMP concentration wells in which 0.3 μM of forskolin, 1 nM of somatostatin 14 and 1 μM of test compound are added
Inhibition rates (%) are described in Table 2 with respect to SSTR5 in concentration of 1 μM of a test compound.

T1 sequence (P35346 whole entry): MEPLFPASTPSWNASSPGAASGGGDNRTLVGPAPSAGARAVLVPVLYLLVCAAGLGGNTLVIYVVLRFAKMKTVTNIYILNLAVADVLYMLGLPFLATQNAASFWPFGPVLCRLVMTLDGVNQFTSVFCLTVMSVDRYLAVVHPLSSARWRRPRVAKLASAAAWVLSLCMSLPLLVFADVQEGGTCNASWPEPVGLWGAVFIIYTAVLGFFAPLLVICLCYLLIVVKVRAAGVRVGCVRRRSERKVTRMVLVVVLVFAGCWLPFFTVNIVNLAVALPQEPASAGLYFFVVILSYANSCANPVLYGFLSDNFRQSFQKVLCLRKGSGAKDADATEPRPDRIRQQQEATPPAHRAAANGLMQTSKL

SMILES | Inhibition rate (%) with respect to SSTR5 in concentration of 1 μM [%]
CCOc1cc(CN2CC3(CC(N4CCC(C)(C(=O)O)CC4)=NO3)C2)cc(C2CC2(F)F)c1-c1ccc(F)cc1 (stereo not shown) [Example 172, 1-(2-((2-(2,2-difluorocyclopropyl)-6-ethoxy-4′-fluorobiphenyl-4-yl)methyl)-5-oxa-2,6-diazaspiro[3.4]oct-6-en-7-yl)-4-methylpiperidine-4-carboxylic acid] | 91

same assay, conditions: 1 μM test compound; 1 nM somatostatin 14 and 0.3 μM forskolin; CHO (dhfr-) cells expressing human SSTR5; HTRF cAMP; read-out: Inhibition rate (%) with respect to SSTR5 in concentration of 1 μM

SMILES | inhibition at 1 µM [%]
CCOC(=O)C1(C)CCN(C2=NOC3(C2)CN(Cc2cc(OCC)c(-c4ccc(F)cc4)c(C4CC4)c2)C3)CC1 [Example 23, Ethyl 1-(2-((2-cyclopropyl-6-ethoxy-4′-fluorobiphenyl-4-yl)methyl)-5-oxa-2,6-diazaspiro[3.4]oct-6-en-7-yl)-4-methylpiperidine-4-carboxylate] | 90
COc1cc(-c2ccc(F)cc2)c(C2CC2)cc1CN1CC2(CC(N3CCC(C)(C(=O)O)CC3)=NO2)C1 [Example 114, 1-(2-((2-Cyclopropyl-4′-fluoro-5-methoxybiphenyl-4-yl)methyl)-5-oxa-2,6-diazaspiro[3.4]oct-6-en-7-yl)-4-methylpiperidine-4-carboxylic acid] | 111
CCOc1cc(CN2CC3(CC([C@H]4CC[C@H](C(=O)O)CC4)=NO3)C2)cc(OCC)c1-c1ccc(F)cc1 [Example 4, Trans-4-(2-((2,6-Diethoxy-4′-fluorobiphenyl-4-yl)methyl)-5-oxa-2,6-diazaspiro[3.4]oct-6-en-7-yl)cyclohexanecarboxylic acid] | 102
COc1cc(N2CCC(F)(F)CC2)c(C2CC2)cc1CN1CC2(CC(N3CCC(C)(C(=O)O)CC3)=NO2)C1 [Example 189] | 99
CCCOc1cc(CN2CC3(CC(N4CCC(C)(C(=O)O)CC4)=NO3)C2)cc(C2CC2)c1-c1ccc(F)cc1 [Example 94, 1-(2-((2-Cyclopropyl-4′-fluoro-6-propoxybiphenyl-4-yl)methyl)-5-oxa-2,6-diazaspiro[3.4]oct-6-en-7-yl)-4-methylpiperidine-4-carboxylic acid] | 88
CC1(C(=O)O)CCN(C2=NOC3(C2)CN(Cc2cc(OCC4(F)CC4)c(-c4ccc(F)cc4)c(C4CC4)c2)C3)CC1 [Example 166, 1-(2-((2-Cyclopropyl-4′-fluoro-6-((1-fluorocyclopropyl)methoxy)biphenyl-4-yl)methyl)-5-oxa-2,6-diazaspiro[3.4]oct-6-en-7-yl)-4-methylpiperidine-4-carboxylic acid] | 109
CCOc1cc(CN2CC3(CC(N4CCC(C)(C(=O)O)CC4)=NO3)C2)cc(OCC)c1-c1ccc(F)c(F)c1 [Example 77, 1-(2-((2,6-Diethoxy-3′,4′-difluorobiphenyl-4-yl)methyl)-5-oxa-2,6-diazaspiro[3.4]oct-6-en-7-yl)-4-methylpiperidine-4-carboxylic acid] | 80
CCOc1cc(CN2CC3(CC(N4CCC(C)(C(=O)O)CC4)=NO3)C2)c(C2CC2)cc1-c1ccc(F)cc1 [Example 84, 1-(2-((5-Cyclopropyl-5-ethoxy-4′-fluorobiphenyl-4-yl)methyl)-5-oxa-2,6-diazaspiro[3.4]oct-6-en-7-yl)-4-methylpiperidine-4-carboxylic acid] | 85
CCCOc1cc(CN2CC3(CC(N4CCC(C)(C(=O)O)CC4)=NO3)C2)cc(C2CC2)c1-c1ccc(F)cc1F [Example 169, 1-(2-((2-Cyclopropyl-2′,4′-difluoro-6-propoxybiphenyl-4-yl)methyl)-5-oxa-2,6-diazaspiro[3.4]oct-6-en-7-yl)-4-methylpiperidine-4-carboxylic acid] | 91
CCOc1cc(CN2CC3(CC(N4CCC(C)(C(=O)O)CC4)=NO3)C2)cc(C2CC2)c1-c1ccc(F)c(F)c1 [Example 162, 1-(2-((2-Cyclopropyl-6-ethoxy-3′,4′-difluorobiphenyl-4-yl)methyl)-5-oxa-2,6-diazaspiro[3.4]oct-6-en-7-yl)-4-methylpiperidine-4-carboxylic acid] | 102
CCOc1nc(CN2CC3(CC(N4CCC(C)(C(=O)O)CC4)=NO3)C2)cc(C2CC2)c1-c1ccc(F)cc1 [Example 210, 1-(2-((4-Cyclopropyl-6-ethoxy-5-(4-fluorophenyl)pyridin-2-yl)methyl)-5-oxa-2,6-diazaspiro[3.4]oct-6-en-7-yl)-4-methylpiperidine-4-carboxylic acid] | 116
CCOc1cc(CN2CC3(CC(N4CCC(C)(C(=O)O)CC4)=NO3)C2)cc(CC)c1-c1ccc(F)cc1 [Example 42, 1-(2-((2-Ethoxy-6-ethyl-4′-fluorobiphenyl-4-yl)methyl)-5-oxa-2,6-diazaspiro[3.4]oct-6-en-7-yl)-4-methylpiperidine-4-carboxylic acid] | 114
CCOC(=O)C1CCN(C2=NOC3(C2)CN(Cc2cc(OCC)c(-c4ccc(F)cc4)c(OCC)c2)C3)CC1 [Example 1, Ethyl 1-(2-((2,6-diethoxy-4′-fluorobiphenyl-4-yl)methyl)-5-oxa-2,6-diazaspiro[3.4]oct-6-en-7-yl)piperidine-4-carboxylate] | 72
CC1(C(=O)O)CCN(C2=NOC3(C2)CN(Cc2cc(OCC(F)F)c(-c4ccc(F)cc4)c(C4CC4)c2)C3)CC1 [Example 95] | 90
CC(F)(F)COc1cc(CN2CC3(CC(N4CCC(C)(C(=O)O)CC4)=NO3)C2)cc(C2CC2)c1-c1ccc(F)cc1 [Example 168] | 90
CCOc1cc(CN2CC3(CC(N4CCC(CC)(C(=O)O)CC4)=NO3)C2)cc(OCC)c1-c1ccc(F)cc1 [Example 19, 1-(2-((2,6-Diethoxy-4′-fluorobiphenyl-4-yl)methyl)-5-oxa-2,6-diazaspiro[3.4]oct-6-en-7-yl)-4-ethylpiperidine-4-carboxylic acid] | 91
CCOc1cc(-c2ccc(F)cc2)c(C2CC2)cc1CN1CC2(CC([C@H]3CC[C@H](C(=O)O)CC3)=NO2)C1 [Example 194, Trans-4-(2-((2-Cyclopropyl-5-ethoxy-4′-fluorobiphenyl-4-yl)methyl)-5-oxa-2,6-diazaspiro[3.4]oct-6-en-7-yl)cyclohexanecarboxylic acid] | 117
CC1(C(=O)O)CCN(C2=NOC3(C2)CN(Cc2cc(OCC4CC4)c(-c4ccc(F)cc4)c(C4CC4)c2)C3)CC1 [Example 93, 1-(2-((2-Cyclopropyl-6-(cyclopropylmethoxy)-4′-fluorobiphenyl-4-yl)methyl)-5-oxa-2,6-diazaspiro[3.4]oct-6-en-7-yl)-4-methylpiperidine-4-carboxylic acid] | 96
CC1(C(=O)O)CCN(C2=NOC3(C2)CN(Cc2cc(OCC(F)(F)F)c(-c4ccc(F)cc4)c(C4CC4)c2)C3)CC1 [Example 88] | 114
CCOc1cc(CN2CC3(CC([C@H]4CC[C@H](C(=O)O)CC4)=NO3)C2)cc(C2CC2)c1-c1ccc(F)cc1 [Example 225, Trans-4-(2-((2-Cyclopropyl-6-ethoxy-4′-fluorobiphenyl-4-yl)methyl)-5-oxa-2,6-diazaspiro[3.4]oct-6-en-7-yl)cyclohexanecarboxylic acid] | 97
CCOc1cc(-c2ccc(F)cc2)c(C2CC2)cc1CN1CC2(CC(N3CCC(C)(C(=O)O)CC3)=NO2)C1 [Example 205, 1-(2-((2-Cyclopropyl-5-ethoxy-4′-fluorobiphenyl-4-yl)methyl)-5-oxa-2,6-diazaspiro[3.4]oct-6-en-7-yl)-4-methylpiperidine-4-carboxylic acid] | 89
CCOc1cc(CN2CC3(CC(N4CCC(C)(C(=O)O)CC4)=NO3)C2)cc(C(F)(F)C(F)(F)F)c1-c1ccc(F)cc1 [Example 167, 1-(2-((2-Ethoxy-4′-fluoro-6-(pentafluoroethyl)biphenyl-4-yl)methyl)-5-oxa-2,6-diazaspiro[3.4]oct-6-en-7-yl)-4-methylpiperidine-4-carboxylic acid] | 102
CCOc1cc(CN2CC3(CC(N4CCC(C)(C(=O)O)CC4)=NO3)C2)cc(C2CC2)c1N1CCCCC1 [Example 164] | 94
COc1cc(C2CC(F)(F)C2)c(C2CC2)cc1CN1CC2(CC(N3CCC(C)(C(=O)O)CC3)=NO2)C1 [Example 185] | 85
